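Cells were grown in 96-well plates and exposed to each compound for 48 hours at five concentrations; endpoints were interpolated linearly between bracketing concentrations, or set to the highest concentration if not reached. GI50 marks 50% less growth.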 The source made the active and inactive calls. No stated cut-off is given here; in the data, active = GI50 up to about 1.1 µM and inactive = higher.
Tests used:
Experiment in all cases: NCI tumour cell line growth inhibition, 48 h
SF-539 = tested on: SF-539
HCT-116 = tested on: HCT-116
MDA-MB-435 = tested on: MDA-MB-435
COLO 205 = tested on: COLO 205
MDA-MB-231 = tested on: MDA-MB-231
A549 = tested on: A549
IGROV-1 = tested on: IGROV-1
SK-MEL-5 = tested on: SK-MEL-5
HL-60 = tested on: HL-60
MDA-N = tested on: MDA-N
MCF7 = tested on: MCF7
EKVX = tested on: EKVX
OVCAR-3 = tested on: OVCAR-3
DU-145 = tested on: DU-145
U-251 = tested on: U-251
OVCAR-5 = tested on: OVCAR-5
NCI-H460 = tested on: NCI-H460
UACC-62 = tested on: UACC-62
BT-549 = tested on: BT-549
SW-620 = tested on: SW-620
UACC-257 = tested on: UACC-257
PC-3 = tested on: PC-3
NCI-H226 = tested on: NCI-H226
RXF 393 = tested on: RXF 393
SF-268 = tested on: SF-268
NCI-H522 = tested on: NCI-H522
MOLT-4 = tested on: MOLT-4
HCC 2998 = tested on: HCC 2998
KM12 = tested on: KM12
NCI-H23 = tested on: NCI-H23
HCT-15 = tested on: HCT-15
RPMI-8226 = tested on: RPMI-8226
CAKI-1 = tested on: CAKI-1
UO-31 = tested on: UO-31
Malme-3M = tested on: Malme-3M
K562 = tested on: K562
OVCAR-8 = tested on: OVCAR-8
NCI/ADR-RES = tested on: NCI/ADR-RES
SR = tested on: SR
SF-295 = tested on: SF-295
SK-MEL-28 = tested on: SK-MEL-28
TK-10 = tested on: TK-10
SNB-75 = tested on: SNB-75
Hs-578T = tested on: Hs-578T
T47D = tested on: T47D
786-0 = tested on: 786-0
HOP-62 = tested on: HOP-62
SN12C = tested on: SN12C
CCRF-CEM = tested on: CCRF-CEM
LOX IMVI = tested on: LOX IMVI
SNB-19 = tested on: SNB-19
HT-29 = tested on: HT-29
ACHN = tested on: ACHN
SK-MEL-2 = tested on: SK-MEL-2
HOP-92 = tested on: HOP-92
M14 = tested on: M14
SK-OV-3 = tested on: SK-OV-3
A498 = tested on: A498
OVCAR-4 = tested on: OVCAR-4

SMILES: COC1=C2C[C@](OC)(C#CC=CC#CC2O)CC1(C)C (stereo partly specified)
- GI50 (SF-539): > 100 µM (inactive)
- GI50 (HCT-116): > 100 µM (inactive)
- GI50 (MDA-MB-435): > 100 µM (inactive)
- GI50 (COLO 205): > 100 µM (inactive)
- GI50 (MDA-MB-231): > 100 µM (inactive)
- GI50 (A549): 40.4 µM (inactive)
- GI50 (IGROV-1): 18.2 µM (inactive)
- GI50 (SK-MEL-5): > 100 µM (inactive)
- GI50 (HL-60): 55 µM (inactive)
- GI50 (MDA-N): > 100 µM (inactive)
- GI50 (MCF7): > 100 µM (inactive)
- GI50 (EKVX): > 100 µM (inactive)
- GI50 (OVCAR-3): > 100 µM (inactive)
- GI50 (DU-145): > 100 µM (inactive)
- GI50 (U-251): > 100 µM (inactive)
- GI50 (OVCAR-5): > 100 µM (inactive)
- GI50 (NCI-H460): > 100 µM (inactive)
- GI50 (UACC-62): 34.6 µM (inactive)
- GI50 (BT-549): > 100 µM (inactive)
- GI50 (SW-620): > 100 µM (inactive)
- GI50 (UACC-257): > 100 µM (inactive)
- GI50 (PC-3): > 100 µM (inactive)
- GI50 (NCI-H226): > 100 µM (inactive)
- GI50 (RXF 393): > 100 µM (inactive)
- GI50 (SF-268): > 100 µM (inactive)
- GI50 (NCI-H522): > 100 µM (inactive)
- GI50 (MOLT-4): 49 µM (inactive)
- GI50 (HCC 2998): 37.3 µM (inactive)
- GI50 (KM12): > 100 µM (inactive)
- GI50 (NCI-H23): > 100 µM (inactive)
- GI50 (HCT-15): > 100 µM
- GI50 (RPMI-8226): 95.5 µM (inactive)
- GI50 (CAKI-1): > 100 µM (inactive)
- GI50 (UO-31): 28.6 µM (inactive)
- GI50 (Malme-3M): > 100 µM (inactive)
- GI50 (K562): 54.8 µM (inactive)
- GI50 (OVCAR-8): > 100 µM (inactive)
- GI50 (NCI/ADR-RES): > 100 µM (inactive)
- GI50 (SR): 56.4 µM (inactive)
- GI50 (SF-295): > 100 µM (inactive)
- GI50 (SK-MEL-28): > 100 µM (inactive)
- GI50 (TK-10): > 100 µM (inactive)
- GI50 (SNB-75): > 100 µM (inactive)
- GI50 (Hs-578T): > 100 µM (inactive)
- GI50 (T47D): > 100 µM (inactive)
- GI50 (786-0): > 100 µM (inactive)
- GI50 (HOP-62): > 100 µM (inactive)
- GI50 (SN12C): > 100 µM (inactive)
- GI50 (CCRF-CEM): 34.4 µM (inactive)
- GI50 (LOX IMVI): > 100 µM (inactive)
- GI50 (SNB-19): > 100 µM (inactive)
- GI50 (HT-29): > 100 µM (inactive)
- GI50 (ACHN): > 100 µM (inactive)

SMILES: COc1ccc(/N=C2\C(=N/c3ccc(OC)cc3)N(S(=O)(=O)c3ccccc3)C(=S)N2c2ccc(OC)cc2)cc1
- GI50 (SF-539): > 100 µM (inactive)
- GI50 (HCT-116): > 100 µM (inactive)
- GI50 (MDA-MB-435): > 100 µM (inactive)
- GI50 (COLO 205): > 100 µM (inactive)
- GI50 (MDA-MB-231): 27.2 µM (inactive)
- GI50 (A549): > 100 µM (inactive)
- GI50 (IGROV-1): > 100 µM (inactive)
- GI50 (SK-MEL-2): > 100 µM (inactive)
- GI50 (SK-MEL-5): 86.5 µM (inactive)
- GI50 (MDA-N): > 100 µM (inactive)
- GI50 (MCF7): > 100 µM (inactive)
- GI50 (EKVX): > 100 µM (inactive)
- GI50 (OVCAR-3): > 100 µM (inactive)
- GI50 (DU-145): > 100 µM (inactive)
- GI50 (U-251): > 100 µM (inactive)
- GI50 (OVCAR-5): > 100 µM (inactive)
- GI50 (UACC-62): > 100 µM (inactive)
- GI50 (BT-549): > 100 µM (inactive)
- GI50 (SW-620): > 100 µM (inactive)
- GI50 (PC-3): > 100 µM (inactive)
- GI50 (NCI-H226): > 100 µM (inactive)
- GI50 (RXF 393): 46.2 µM (inactive)
- GI50 (SF-268): > 100 µM (inactive)
- GI50 (NCI-H522): > 100 µM (inactive)
- GI50 (MOLT-4): > 100 µM (inactive)
- GI50 (HCC 2998): > 100 µM (inactive)
- GI50 (KM12): > 100 µM (inactive)
- GI50 (HOP-92): > 100 µM (inactive)
- GI50 (NCI-H23): > 100 µM (inactive)
- GI50 (HCT-15): > 100 µM
- GI50 (RPMI-8226): > 100 µM (inactive)
- GI50 (CAKI-1): > 100 µM (inactive)
- GI50 (UO-31): > 100 µM (inactive)
- GI50 (K562): > 100 µM (inactive)
- GI50 (OVCAR-8): > 100 µM (inactive)
- GI50 (NCI/ADR-RES): > 100 µM (inactive)
- GI50 (SR): > 100 µM (inactive)
- GI50 (SF-295): > 100 µM (inactive)
- GI50 (SK-MEL-28): > 100 µM (inactive)
- GI50 (TK-10): > 100 µM (inactive)
- GI50 (SNB-75): 4.88 µM (inactive)
- GI50 (M14): 25.1 µM (inactive)
- GI50 (Hs-578T): 89.1 µM (inactive)
- GI50 (T47D): > 100 µM (inactive)
- GI50 (786-0): > 100 µM (inactive)
- GI50 (HOP-62): > 100 µM (inactive)
- GI50 (SN12C): > 100 µM (inactive)
- GI50 (SK-OV-3): > 100 µM (inactive)
- GI50 (SNB-19): > 100 µM (inactive)
- GI50 (ACHN): > 100 µM (inactive)

SMILES: CC(=O)OC1CCC2(C)C(=CC(C3C=C4CC(OC(C)=O)CCC4(C)C4=C3C3CC5OC6(CCC(C)CO6)C(C)C5C3(C)CC4)C3=C2CCC2(C)C3CC3OC4(CCC(C)CO4)C(C)C32)C1 (stereo unspecified)
- GI50 (HCT-116): 15.1 µM (inactive)
- GI50 (MDA-MB-435): 14.1 µM (inactive)
- GI50 (COLO 205): 17.6 µM (inactive)
- GI50 (A498): 17.1 µM (inactive)
- GI50 (MDA-MB-231): 16.3 µM (inactive)
- GI50 (A549): 13.7 µM (inactive)
- GI50 (IGROV-1): 11.5 µM (inactive)
- GI50 (SK-MEL-2): 16.5 µM (inactive)
- GI50 (SK-MEL-5): 13 µM (inactive)
- GI50 (MDA-N): 17.2 µM (inactive)
- GI50 (MCF7): 10.3 µM (inactive)
- GI50 (EKVX): 17.9 µM (inactive)
- GI50 (OVCAR-3): 15.1 µM (inactive)
- GI50 (DU-145): 14.2 µM (inactive)
- GI50 (U-251): 14.7 µM (inactive)
- GI50 (OVCAR-5): 17.7 µM (inactive)
- GI50 (UACC-62): 13.4 µM (inactive)
- GI50 (BT-549): 15.6 µM (inactive)
- GI50 (UACC-257): 10.2 µM (inactive)
- GI50 (PC-3): 12.9 µM (inactive)
- GI50 (NCI-H226): 23 µM (inactive)
- GI50 (RXF 393): 16.1 µM (inactive)
- GI50 (SF-268): 11.4 µM (inactive)
- GI50 (NCI-H522): 6.17 µM (inactive)
- GI50 (MOLT-4): 2.07 µM (inactive)
- GI50 (KM12): 18.2 µM (inactive)
- GI50 (HOP-92): 14.1 µM (inactive)
- GI50 (NCI-H23): 14.7 µM (inactive)
- GI50 (HCT-15): 14.3 µM
- GI50 (RPMI-8226): 4.98 µM (inactive)
- GI50 (OVCAR-4): 14 µM (inactive)
- GI50 (CAKI-1): 18.2 µM (inactive)
- GI50 (UO-31): 15.5 µM (inactive)
- GI50 (Malme-3M): 13.6 µM (inactive)
- GI50 (K562): 4.43 µM (inactive)
- GI50 (OVCAR-8): 11.1 µM (inactive)
- GI50 (NCI/ADR-RES): 17.2 µM (inactive)
- GI50 (SR): 11.9 µM (inactive)
- GI50 (SF-295): 13.2 µM (inactive)
- GI50 (SK-MEL-28): 17.7 µM (inactive)
- GI50 (TK-10): 14.5 µM (inactive)
- GI50 (SNB-75): 16.3 µM (inactive)
- GI50 (M14): 14 µM (inactive)
- GI50 (Hs-578T): 2.61 µM (inactive)
- GI50 (T47D): 15.5 µM (inactive)
- GI50 (786-0): 16.1 µM (inactive)
- GI50 (HOP-62): 15.5 µM (inactive)
- GI50 (SN12C): 17.6 µM (inactive)
- GI50 (LOX IMVI): 16.5 µM (inactive)
- GI50 (SK-OV-3): 16.3 µM (inactive)
- GI50 (SNB-19): 16.7 µM (inactive)
- GI50 (HT-29): 14 µM (inactive)
- GI50 (ACHN): 15.8 µM (inactive)

From ChEMBL document CHEMBL1201862, “PubChem BioAssay data set” (2004)
